Reference: ChEMBL document CHEMBL1201862, “PubChem BioAssay data set” (2004)
“And” between values parts separate entries of the source, which are not always exact repeats. Equal entries are not always repeated.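 Exposure lasted 48 hours, with cells grown in 96-well plates and compounds tested at five concentrations. At the GI50, growth is halved.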 The source made the active and inactive calls. Cut-off read from the data, not from the text of the source: active = GI50 up to about 1.1 µM and inactive = higher.

Tests used:
Experiment in all cases: NCI-60 cell line screen, 48 h
[1] = system: SK-MEL-5
[2] = system: T47D
[3] = system: LOX IMVI
[4] = system: PC-3
[5] = system: MDA-MB-231
[6] = system: HOP-62
[7] = system: OVCAR-8
[8] = system: ACHN
[9] = system: SN12C
[10] = system: M14
[11] = system: HT-29
[12] = system: SK-MEL-28
[13] = system: HOP-92
[14] = system: NCI/ADR-RES
[15] = system: Malme-3M
[16] = system: TK-10
[17] = system: SNB-19
[18] = system: CCRF-CEM
[19] = system: A498
[20] = system: U-251
[21] = system: SK-OV-3
[22] = system: UACC-62
[23] = system: MDA-N
[24] = system: SW-620
[25] = system: HCT-116
[26] = system: KM12
[27] = system: OVCAR-5
[28] = system: HCC 2998
[29] = system: MOLT-4
[30] = system: NCI-H460
[31] = system: K562
[32] = system: SNB-75
[33] = system: NCI-H23
[34] = system: Hs-578T
[35] = system: IGROV-1
[36] = system: COLO 205
[37] = system: SF-268
[38] = system: CAKI-1
[39] = system: NCI-H522
[40] = system: 786-0
[41] = system: OVCAR-4
[42] = system: MDA-MB-435
[43] = system: EKVX
[44] = system: HL-60
[45] = system: SF-295
[46] = system: SK-MEL-2
[47] = system: OVCAR-3
[48] = system: NCI-H226
[49] = system: SR
[50] = system: UACC-257
[51] = system: A549
[52] = system: MCF7
[53] = system: HCT-15
[54] = system: SF-539
[55] = system: DU-145
[56] = system: RXF 393

## COc1ccc2nc(-c3ccc(OC(=O)N(C)C)cc3)cn2c1
[1]
  GI50: > 100 µM (inactive)
[2]
  GI50: 71.4 µM (inactive)
[3]
  GI50: 82.8 µM (inactive)
[4]
  GI50: > 100 µM (inactive)
[5]
  GI50: > 100 µM (inactive)
[6]
  GI50: > 100 µM (inactive)
[7]
  GI50: > 100 µM (inactive)
[8]
  GI50: > 100 µM (inactive)
[9]
  GI50: > 100 µM (inactive)
[10]
  GI50: 75.7 µM (inactive)
[11]
  GI50: 27.8 µM (inactive)
[12]
  GI50: > 100 µM (inactive)
[13]
  GI50: > 100 µM (inactive)
[14]
  GI50: > 100 µM (inactive)
[15]
  GI50: > 100 µM (inactive)
[16]
  GI50: > 100 µM (inactive)
[17]
  GI50: > 100 µM (inactive)
[18]
  GI50: 67.5 µM (inactive)
[19]
  GI50: > 100 µM (inactive)
[20]
  GI50: > 100 µM (inactive)
[21]
  GI50: > 100 µM (inactive)
[22]
  GI50: > 100 µM (inactive)
[23]
  GI50: > 100 µM (inactive)
[24]
  GI50: > 100 µM (inactive)
[25]
  GI50: > 100 µM (inactive)
[26]
  GI50: 86.1 µM (inactive)
[27]
  GI50: > 100 µM (inactive)
[28]
  GI50: > 100 µM (inactive)
[29]
  GI50: 82 µM (inactive)
[30]
  GI50: 36 µM (inactive)
[31]
  GI50: 39 µM (inactive)
[32]
  GI50: > 100 µM (inactive)
[33]
  GI50: > 100 µM (inactive)
[34]
  GI50: > 100 µM (inactive)
[35]
  GI50: > 100 µM (inactive)
[36]
  GI50: 41.4 µM (inactive)
[37]
  GI50: > 100 µM (inactive)
[38]
  GI50: > 100 µM (inactive)
[39]
  GI50: 36 µM (inactive)
[40]
  GI50: 91.6 µM (inactive)
[41]
  GI50: > 100 µM (inactive)
[42]
  GI50: > 100 µM (inactive)
[43]
  GI50: > 100 µM (inactive)
[44]
  GI50: > 100 µM (inactive)
[45]
  GI50: 85.5 µM (inactive)
[46]
  GI50: > 100 µM (inactive)
[47]
  GI50: > 100 µM (inactive)
[48]
  GI50: > 100 µM (inactive)
[49]
  GI50: 38.9 µM (inactive)
[50]
  GI50: > 100 µM (inactive)
[51]
  GI50: > 100 µM (inactive)
[52]
  GI50: > 100 µM (inactive)

## CC1(C)OP(=O)(O)C=C1Sc1ccc([N+](=O)[O-])cc1[N+](=O)[O-]
[1]
  GI50: > 100 µM (inactive)
[2]
  GI50: > 100 µM (inactive)
[3]
  GI50: > 100 µM (inactive)
[4]
  GI50: > 100 µM (inactive)
[6]
  GI50: > 100 µM (inactive)
[7]
  GI50: > 100 µM (inactive)
[53]
  GI50: > 100 µM
[8]
  GI50: > 100 µM (inactive)
[9]
  GI50: > 100 µM (inactive)
[10]
  GI50: > 100 µM (inactive)
[11]
  GI50: 45.7 µM (inactive)
[12]
  GI50: > 100 µM (inactive)
[13]
  GI50: > 100 µM (inactive)
[14]
  GI50: > 100 µM (inactive)
[15]
  GI50: > 100 µM (inactive)
[16]
  GI50: > 100 µM (inactive)
[17]
  GI50: > 100 µM (inactive)
[19]
  GI50: > 100 µM (inactive)
[20]
  GI50: > 100 µM (inactive)
[21]
  GI50: > 100 µM (inactive)
[22]
  GI50: > 100 µM (inactive)
[23]
  GI50: > 100 µM (inactive)
[24]
  GI50: > 100 µM (inactive)
[25]
  GI50: > 100 µM (inactive)
[26]
  GI50: > 100 µM (inactive)
[54]
  GI50: > 100 µM (inactive)
[27]
  GI50: > 100 µM (inactive)
[28]
  GI50: > 100 µM (inactive)
[30]
  GI50: > 100 µM (inactive)
[31]
  GI50: > 100 µM (inactive)
[32]
  GI50: > 100 µM (inactive)
[33]
  GI50: > 100 µM (inactive)
[34]
  GI50: > 100 µM (inactive)
[35]
  GI50: > 100 µM (inactive)
[36]
  GI50: > 100 µM (inactive)
[37]
  GI50: > 100 µM (inactive)
[38]
  GI50: > 100 µM (inactive)
[39]
  GI50: > 100 µM (inactive)
[40]
  GI50: > 100 µM (inactive)
[41]
  GI50: > 100 µM (inactive)
[55]
  GI50: > 100 µM (inactive)
[42]
  GI50: > 100 µM (inactive)
[43]
  GI50: > 100 µM (inactive)
[44]
  GI50: > 100 µM (inactive)
[45]
  GI50: > 100 µM (inactive)
[46]
  GI50: > 100 µM (inactive)
[47]
  GI50: > 100 µM (inactive)
[48]
  GI50: > 100 µM (inactive)
[49]
  GI50: > 100 µM (inactive)
[50]
  GI50: > 100 µM (inactive)
[51]
  GI50: > 100 µM (inactive)
[52]
  GI50: > 100 µM (inactive)

## O=C(Nc1ccc([N+](=O)[O-])cc1)c1ccc([N+](=O)[O-])cc1
[32]
  GI50: 48.9 µM (inactive) and 70.6 µM (inactive)
[45]
  GI50: 85.9 µM (inactive) and 50.2 µM (inactive)

## Nc1nc(Nc2ccccc2)sc1C(=O)c1ccc(Cl)cc1
[2]
  GI50: > 95.1 µM (inactive)
[5]
  GI50: 4.3 µM (inactive)
[6]
  GI50: 2.88 µM (inactive)
[53]
  GI50: > 100 µM
[10]
  GI50: > 100 µM (inactive)
[11]
  GI50: > 100 µM (inactive)
[12]
  GI50: > 100 µM (inactive)
[13]
  GI50: 3.39 µM (inactive)
[16]
  GI50: 5.12 µM (inactive)
[17]
  GI50: 3.24 µM (inactive)
[18]
  GI50: > 100 µM (inactive)
[19]
  GI50: 2.4 µM (inactive)
[20]
  GI50: 2.69 µM (inactive)
[21]
  GI50: 2.46 µM (inactive)
[24]
  GI50: 4.13 µM (inactive)
[26]
  GI50: > 100 µM (inactive)
[54]
  GI50: > 100 µM (inactive)
[27]
  GI50: > 100 µM (inactive)
[29]
  GI50: 8.99 µM (inactive)
[31]
  GI50: > 100 µM (inactive)
[32]
  GI50: 2.48 µM (inactive)
[33]
  GI50: 8.17 µM (inactive)
[35]
  GI50: 3.72 µM (inactive)
[36]
  GI50: > 100 µM (inactive)
[37]
  GI50: 1.35 µM (inactive)
[38]
  GI50: 0.71 µM (active)
[56]
  GI50: 2.69 µM (inactive)
[41]
  GI50: 0.748 µM (active)
[42]
  GI50: 1.3 µM (inactive)
[43]
  GI50: > 58.9 µM (inactive)
[44]
  GI50: > 100 µM (inactive)
[45]
  GI50: 3.7 µM (inactive)
[46]
  GI50: 15.1 µM (inactive)
[49]
  GI50: 1.36 µM (inactive)
[52]
  GI50: 4.39 µM (inactive)
